# “And” between values parts separate entries of the source, which are not always exact repeats. Equal entries are not always repeated. Where two headings read alike, the source gives them in different places.
# Test system: AMO-1 cells
# Test: In vitro cell viability assay (CellTiter-Glo)
# Type: cell-based, human
# Design: Cell viability after compound washout (CellTiter-Glo): scale not given here
# Settings: for Cell viability after compound washout (CellTiter-Glo): AMO-1, replicates
# Protocol: All cell lines were grown and treated in RPMI 1640 or Dulbecco’s modified Eagle medium (Sigma, St. Louis, MO) supplemented with 10% fetal bovine serum (Gibco) or 10% human serum (Sigma) and maintained in a humidified incubator at 5% CO2 and 37 °C. DLD-1, MV4-11, NCI-H929 (all ATCC, Manassas, VA, USA) and AMO-1 (DSMZ, Braunschweig, Germany) cells were plated 4000 cells per well in 384-well tissue culture plates and treated with compounds of interest for 24 h at 37 °C, 5% CO2 humidified incubator. Each concentration was tested in duplicate at least 3 separate times. Adherent cells were allowed to adhere overnight prior to treatment. Alternatively, AMO-1 or NCI-H929 cells were treated with ABBV-467 for the indicated contact times (1–24 h) at 37 °C in a 5% CO2 humidified incubator and washed 3 times with compound-free media prior to incubation for the remainder of a 24-h treatment period. Cell viability was subsequently determined using CellTiter-Glo (Promega, Madison, WI, USA) according to the manufacturer’s instructions.
# For in vitro viability assays, mean EC50 and EC90 values were determined from the resulting dose-response curves from at least 3 independent experiments, and depict the mean ± standard error of the mean.
# Fig. 2 Apoptosis induced by ABBV-467 is mechanism based and induces cell death in MCL-1-dependent cell lines after short target engagement periods. H929 cells were treated with ABBV-467 in the presence or absence of the pan-caspase inhibitor z-VAD-fmk (50 µM) and the impact on caspase-3/7 activation (a), mitochondrial membrane potential (ΔΨm; b), and apoptosis (c) determined. Alternatively, BAK-deficient SKBR3 cells were treated with ABBV-467 for 24 h and the impact on cell viability compared with the parental cell line, determined by CellTiter-Glo. Inset depicts a western blot of BAK and BAX expression in SKBR3 cell variants using GAPDH as a loading control. Each of the 3 proteins were probed on separate blots (d). Data in (a–d) are presented as the mean ± standard error of the mean. H929 and AMO-1 cells were treated with ABBV-467 at the indicated concentrations and the impact on caspase-3/7 activation and viability (DRAQ7-positive) cells determined over time by Incucyte®. Data are presented as the mean ± standard deviation (e). H929 or AMO-1 cells were cultured in media containing 10% human serum and treated with ABBV-467 for the indicated contact times. Cells were subsequently washed 3 times with drug-free media and incubated in drug-free media for the remainder of the 24-h treatment period at 37 °C before cell viability was determined by CellTiter-Glo. Mean EC50 and EC90 values were determined from the resulting dose-response curves from at least 3 independent experiments, each assessed in quadruplicate, and depict the mean ± standard error of the mean. Presented ABBV-467 dose-response curves in H929 and AMO-1 cells were compiled from at least 3 independent experiments (f).
smiles,measurement,setting,value
Cc1c(Cl)c2c(Cl)c(C)c1-c1c(-c3ccc(F)cc3)sc3ncnc(c13)O[C@@H](C(=O)O)Cc1cc(ccc1OCc1ccnc(-c3ccc(OC[C@H]4COCCO4)cc3)n1)OC[C@@H](CN1CCN(C)CC1)O2 [ABBV-467],EC50,"AMO-1, individual determinations, read-out: Individual EC50",0.224 nM and 0.216 nM and 0.212 nM and 0.145 nM and 0.159 nM and 0.131 nM and 0.106 nM and 0.0956 nM and 0.0874 nM and 0.217 nM and 0.188 nM
same,Cell viability after compound washout (CellTiter-Glo),"2hr + 22hr, Log Conc 1",0.4281 and 0.471 and 0.3421 and 0.36 and 0.84 and 0.79 and 0.71 and 0.8 and 2.671 and 3.13 and 2.51 and 2.629
same,Cell viability after compound washout (CellTiter-Glo),"c49-c56, head empty, Log Conc 0.39794",0.4
same,EC50,"Homo sapiens, AMO1, 10% human serum, contact time 1 hr, washout, viability at 24 h, read-out: AMO-1 Mean EC50",31.9 nM
same,EC90,"Homo sapiens, AMO1, 10% human serum, contact time 2 hr, washout, viability at 24 h",174 nM
same,EC50,"Homo sapiens, AMO1, 10% human serum, contact time 2 hr, washout, viability at 24 h, read-out: AMO-1 Mean EC50",27.1 nM
same,EC90,"Homo sapiens, AMO1, 10% human serum, contact time 4 hr, washout, viability at 24 h",141 nM
same,EC50,"Homo sapiens, AMO1, 10% human serum, contact time 4 hr, washout, viability at 24 h, read-out: AMO-1 Mean EC50",17.4 nM
same,EC90,"Homo sapiens, AMO1, 10% human serum, contact time 6 hr, washout, viability at 24 h",114 nM
same,EC50,"Homo sapiens, AMO1, 10% human serum, contact time 6 hr, washout, viability at 24 h, read-out: AMO-1 Mean EC50",9.4 nM
same,EC90,"Homo sapiens, AMO1, 24 h, 10% human serum, contact time 24 hr",6.7 nM
same,EC50,"Homo sapiens, AMO1, 24 h, 10% human serum, contact time 24 hr, read-out: AMO-1 Mean EC50",0.7 nM
same,EC50,"Homo sapiens, AMO1, 24 h, read-out: AMO-1 EC50 (nM, 10% FBS), 10% FBS, 24 h continuous treatment",0.1 nM
same,EC50,"Homo sapiens, AMO1, AMO-1, arithmetic mean, read-out: Arithmetic Mean EC50 nM",0.15 nM
same,EC50,"Homo sapiens, AMO1, AMO-1, arithmetic mean, read-out: Arithmetic Mean EC50 µM",0.155 nM
same,EC50,"Homo sapiens, AMO1, read-out: Individual EC50 µM, AMO-1, individual determinations",0.112 nM
same,EC50,"read-out: AMO-1 EC50 (nM, 10% FBS), 10% FBS, 24 h continuous treatment",0.16 nM
same,EC50,"read-out: Individual EC50 µM, AMO-1, individual determinations",0.122 nM
